The experiment has as its target RORγ (Homo sapiens, UniProt P51449). Briefly: RORγ Gal4 Reporter Gene Assay. It counts as cell-based. The following applies: for IC50: 293T cells. The protocol:
Determination of a ligand mediated Gal4 promoter driven transactivation to quantify ligand binding to RORγ was performed as follows: DNA encoding three different RORγ protein fragments was cloned into vector pCMV-BD (Stratagene). Expression was under control of a CMV promoter and as fusion to the DNA-binding domain of the yeast protein GAL4. Other vectors used were pFR-Luc (Stratagene) as regulated reporter plasmid. pFR-Luc contains a synthetic promoter with five tandem repeats of the yeast GAL4 binding sites that control expression of the Photinus pyralis (American firefly) luciferase gene. In order to improve experimental accuracy the plasmid pRL-CMV was cotransfected. pRL-CMV contains the constitutive CMV promoter, controlling the expression of the Renilla reniformis luciferase.
The medium is supplemented with 10% fetal bovine serum, 0.1 mM nonessential amino acids, 1 mM sodium pyruvate, 1% Glutamax and 100 units Penicilin/[…] per mL at 37° C. in 5% CO2.
For the assay, […] were plated per well in 96 well plates in 100 μL per well, incubated over night at 37° C. in 5% CO2. […] About 4 h after addition of the transfection solution, fresh Minimal Essential Medium (MEM, same composition as used for plating cells, but without serum) was added. Then compound stocks, prediluted in MEM (same composition as used for plating cells) were added (final vehicle concentration not exceeding 0.1%).
All experiments were done at least in triplicates.

Where [1] appears, read: firefly (FF) luciferase, read-out: pIC50 (FF) (converted).
Setting [2] is: renilla normalised (RENnorm) luciferase, read-out: pIC50 (REN) (converted).

These results are taken from patent US10301272B2, “Carboxamide or sulfonamide substituted thiazoles and related derivatives as modulators for the orphan nuclear receptor ROR[γ]” (Phenex Pharmaceuticals AG, priority 2012, dated 2019).

Like-named read-outs stand apart in the source and are kept apart here.

Chain of RORγ (P51449 whole entry, looked up, the tested form may be a part): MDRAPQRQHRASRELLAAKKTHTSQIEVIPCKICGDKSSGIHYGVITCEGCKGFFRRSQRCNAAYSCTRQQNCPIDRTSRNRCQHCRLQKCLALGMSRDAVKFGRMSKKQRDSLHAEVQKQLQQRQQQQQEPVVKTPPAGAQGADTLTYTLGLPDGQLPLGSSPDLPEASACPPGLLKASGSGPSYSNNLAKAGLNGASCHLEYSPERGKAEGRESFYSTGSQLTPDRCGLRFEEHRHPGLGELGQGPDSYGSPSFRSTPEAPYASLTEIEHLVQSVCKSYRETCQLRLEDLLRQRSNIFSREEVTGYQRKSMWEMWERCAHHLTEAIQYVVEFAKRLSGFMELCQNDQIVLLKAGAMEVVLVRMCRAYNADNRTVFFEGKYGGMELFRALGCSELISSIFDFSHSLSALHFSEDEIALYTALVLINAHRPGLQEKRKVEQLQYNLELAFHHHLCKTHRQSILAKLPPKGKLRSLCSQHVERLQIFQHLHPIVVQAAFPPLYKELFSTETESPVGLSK

With `CC(C)(C)NS(=O)(=O)c1ccc(-c2sc(C(=O)NC3CCS(=O)(=O)CC3)nc2-c2cccc(C#N)c2)c2ccccc12` [300/15], the “pIC50 (FF)” value is “nt/7.3/7.4” and the “pIC50 (REN)” value is on record as “nt/7.3/7.4”.

Consider `CN(C(=O)c1nc(CC2CCCCC2)c(-c2cc(C(C)(C)C)cc(C3(C)CC3)c2)s1)C1CCOCC1` [6/52], for which the “pIC50 (FF)” value is reported as “nt/6.9/6.9” and the “pIC50 (REN)” value is “nt/6.9/6.9”.

On to `CC1CCN(C(=O)c2nc(C(=O)NCC(C)(C)O)sc2-c2ccc(S(=O)(=O)N[C@@H](C)C(F)(F)F)c3ccccc23)CC1` [304/12], for which the “pIC50 (FF)” value was “nt/7.7/7.7” and the “pIC50 (REN)” value is recorded as “nt/7.7/7.7”.

Consider `C[C@H](NS(=O)(=O)c1ccc(-c2sc(C(=O)NCC(C)(C)O)nc2CC2CCC2)c(C(F)(F)F)c1)C(F)(F)F` [21/20], for which the “pIC50 (FF)” value is listed as “nt/7.7/7.7” and the “pIC50 (REN)” value is “nt/7.7/7.7”.

Turning to `CC(C)(C)NS(=O)(=O)c1ccc(-c2sc(C(=O)NC3CCS(=O)(=O)CC3)nc2-c2cccnc2)c2ccccc12` [300/12], the “pIC50 (FF)” value is “nt/6.1/6.2” and the “pIC50 (REN)” value is “nt/6.1/6.2”.

Consider `C[C@H](NS(=O)(=O)c1ccc(-c2sc(C(=O)NCC(C)(C)O)nc2CC2CCC2)c(OC(F)(F)F)c1)C(F)(F)F` [21/18], for which the “pIC50 (FF)” value is listed as “nt/8.0/8.1” and the “pIC50 (REN)” value is “nt/8.0/8.1”.

As for `CC(C)(C)NS(=O)(=O)c1ccc(-c2sc(C(=O)N[C@H]3C[C@H](C(=O)O)C3)nc2CC2CCC2)c2ccccc12` [21/17], the IC50 is 7.94 nM under setting [1] and 6.31 nM under setting [2].

In the case of `CC1CCN(C(=O)c2nc(C(=O)NCC(C)(C)O)sc2-c2ccc(S(=O)(=O)NCC(F)(F)F)c3ccccc23)CC1` [304/21], the “pIC50 (FF)” value is recorded as “nt/7.4/7.4” and the “pIC50 (REN)” value was “nt/7.4/7.4”.

Regarding `CC1CCCN(C(=O)c2nc(C(=O)NCC(C)(C)O)sc2-c2ccc(S(=O)(=O)NC(C)(C)C)c3ccccc23)C1C` (stereo not drawn) [304/9], the “pIC50 (FF)” value is “nt/7.3/7.4” and the “pIC50 (REN)” value was “nt/7.3/7.4”.

In the case of `CC(C)(C)NS(=O)(=O)c1ccc(-c2oc(C(=O)NCCC(C)(C)C(=O)O)nc2CC2CCCCC2)c2ccccc12` [100/21], the “pIC50 (FF)” value is on record as “nt/7.2/7.1” and the “pIC50 (REN)” value was “nt/7.2/7.1”.

Regarding `CC(C)(C)NS(=O)(=O)c1ccc(-c2sc(C(=O)NC3CCS(=O)(=O)CC3)nc2CC2CCC(F)(F)CC2)c2ccccc12` [21/12], the “pIC50 (FF)” value is given as “nt/8.0/8.2” and the “pIC50 (REN)” value is listed as “nt/8.0/8.2”.

Take `C[C@H](NS(=O)(=O)c1ccc(-c2sc(C(=O)NCC(C)(C)O)nc2CC2CCC(F)(F)CC2)c2ccccc12)C(F)(F)F` [21/23]: the “pIC50 (FF)” value is “nt/8.7/8.6” and the “pIC50 (REN)” value is “nt/8.7/8.6”.

Turning to `CC(C)(C)NS(=O)(=O)c1ccc(-c2sc(C(=O)NC3CCS(=O)(=O)CC3)nc2C2CCC2)c2ccccc12` [300/10], the “pIC50 (FF)” value is recorded as “nt/7.2/7.3” and the “pIC50 (REN)” value is on record as “nt/7.2/7.3”.

For the compound `CCC(C)(C)NS(=O)(=O)c1ccc(-c2sc(C(=O)N[C@H]3C[C@H](C(=O)O)C3)nc2C(=O)N2CCC(C)CC2)c(Cl)c1C` [Example 302, trans-3-(5-(2-Chloro-3-methyl-4-(N-(tert-pentyl)sulfamoyl)phenyl)-4-(4-methylpiperidine-1-carbonyl)thiazole-2-carboxamido)cyclobutanecarboxylic acid], the “pIC50 (FF)” value is given as “nt/7.3/7.5” and the “pIC50 (REN)” value was “nt/7.3/7.5”.

For the compound `CC(C)(C)NS(=O)(=O)c1ccc(-c2sc(C(=O)NC3CCS(=O)(=O)CC3)nc2CC2CCC2)c(Cl)c1Cl` [21/14], the “pIC50 (FF)” value was “nt/8.3/8.4” and the “pIC50 (REN)” value is “nt/8.3/8.4”.

Take `CCCc1nc(C(=O)NCC(C)(C)O)sc1-c1ccc(S(=O)(=O)N[C@@H](C)C(F)(F)F)c2ccccc12` [300/9]: the “pIC50 (FF)” value was “nt/7.9/7.9” and the “pIC50 (REN)” value is “nt/7.9/7.9”.

Turning to `CC1CCN(C(=O)c2nc(C(=O)NCC(C)(C)O)sc2-c2ccc(S(=O)(=O)NCC(C)(C)C)c3ccccc23)CC1` [304/19], the “pIC50 (FF)” value was “nt/7.4/7.5” and the “pIC50 (REN)” value was “nt/7.4/7.5”.

Consider `CC1CCN(C(=O)c2nc(C(=O)NCC(C)(C)O)sc2-c2ccc(S(=O)(=O)NC3(C)CCC3)c3ccccc23)CC1` [304/26], for which the “pIC50 (FF)” value is “nt/8.0/7.9” and the “pIC50 (REN)” value is on record as “nt/8.0/7.9”.

For the compound `Cc1c(-c2sc(C(=O)NC3CCS(=O)(=O)CC3)nc2CC2CCCCC2)cc(Cl)c(S(N)(=O)=O)c1Cl` [17/2], the “pIC50 (FF)” value was “nt/5.7/5.9” and the “pIC50 (REN)” value is on record as “nt/5.7/5.9”.

With `CC(C)(C)NS(=O)(=O)c1ccc(-c2sc(C(=O)NC3CCS(=O)(=O)CC3)nc2-c2cccc(C(N)=O)c2)c2ccccc12` [300/16], the “pIC50 (FF)” value is given as “nt/6.0/6.1” and the “pIC50 (REN)” value is given as “nt/6.0/6.1”.

As for `CC(C)(C)NS(=O)(=O)c1ccc(-c2sc(C(=O)NC3CCS(=O)(=O)CC3)nc2Cc2cccnc2)c2ccccc12` [300/13], the “pIC50 (FF)” value is listed as “nt/6.4/6.6” and the “pIC50 (REN)” value is “nt/6.4/6.6”.

For `CC(C)(C#N)CNC(=O)c1nc(CC2CCCCC2)c(-c2ccc(S(=O)(=O)NC(C)(C)C)c3ccccc23)s1` [6/58], the “pIC50 (FF)” value is listed as “nt/8.7/8.7” and the “pIC50 (REN)” value is recorded as “nt/8.7/8.7”.

Take `CC(C)(C)NS(=O)(=O)c1ccc(-c2sc(C(=O)NCC(C)(C)c3nn[nH]n3)nc2CC2CCCCC2)c2ccccc12` [6/59]: the “pIC50 (FF)” value is recorded as “nt/7.6/7.8” and the “pIC50 (REN)” value was “nt/7.6/7.8”.

Regarding `CCC(C)(C)NS(=O)(=O)c1ccc(-c2sc(C(=O)NCC(C)(C)O)nc2C(=O)N2CCC(C)CC2)c2ccccc12` [304/13], the “pIC50 (FF)” value was “nt/7.6/7.7” and the “pIC50 (REN)” value was “nt/7.6/7.7”.

On to `Cc1c(-c2sc(C(=O)NC3CCS(=O)(=O)CC3)nc2CC2CCCCC2)cc(Cl)c(S(=O)(=O)NC(C)(C)C)c1Cl` [6/63], for which the “pIC50 (FF)” value is given as “nt/9.2/8.9” and the “pIC50 (REN)” value is recorded as “nt/9.2/8.9”.

For the compound `CC1CCN(C(=O)c2nc(C(=O)NCC(C)(C)O)sc2-c2ccc(S(=O)(=O)NCC(C)(C)O)c3ccccc23)CC1` [304/22], the “pIC50 (FF)” value was “nt/5.8/5.8” and the “pIC50 (REN)” value is “nt/5.8/5.8”.

For `CC(C)(O)CNC(=O)c1nc(C(=O)N2CCCCC2(C)C)c(-c2ccc(S(=O)(=O)NC(C)(C)C)c3ccccc23)s1` [304/6], the “pIC50 (FF)” value is “nt/6.6/6.8” and the “pIC50 (REN)” value was “nt/6.6/6.8”.

As for `CC(C)(C)NS(=O)(=O)c1ccc(-c2sc(C(=O)N3CCS(=O)(=O)CC3)nc2CC2CCCCC2)c2ccccc12` [6/55], the “pIC50 (FF)” value is recorded as “nt/8.0/8.2” and the “pIC50 (REN)” value is recorded as “nt/8.0/8.2”.

Consider `C[C@H](NS(=O)(=O)c1ccc(-c2sc(C(=O)NC3CCS(=O)(=O)CC3)nc2CC2CCCC2)c(Cl)c1Cl)C(F)(F)F` [8/12], for which the IC50 by setting is: under setting [1], 1.26 nM; under setting [2], 1.26 nM.

As to `CC(C)(CCO)NC(=O)c1cc(-c2sc(C(=O)NC3CCS(=O)(=O)CC3)nc2CC2CCCCC2)cc(C2(C)CC2)c1` [10/3], the “pIC50 (FF)” value is listed as “nt/7.9/8.0” and the “pIC50 (REN)” value is “nt/7.9/8.0”.

Turning to `CCC(C)(C)NS(=O)(=O)c1ccc(-c2sc(C(=O)NC3CCS(=O)(=O)CC3)nc2C(=O)N2CCC(C)CC2)c(Cl)c1C` [Example 301, 5-(2-Chloro-3-methyl-4-(N-(tert-pentyl)sulfamoyl)phenyl)-N-(1,1-dioxidotetrahydro-2H-thiopyran-4-yl)-4-(4-methylpiperidine-1-carbonyl)thiazole-2-carboxamide], the “pIC50 (FF)” value is recorded as “nt/7.8/7.9” and the “pIC50 (REN)” value was “nt/7.8/7.9”.

On to `CC(C)(O)CNC(=O)c1nc(CC2CCCCC2)c(-c2ccc(S(=O)(=O)NC(C)(C)C)cc2OC(F)(F)F)s1` [21/8], for which the “pIC50 (FF)” value is recorded as “nt/7.7/7.8” and the “pIC50 (REN)” value is given as “nt/7.7/7.8”.

On to `C[C@H](NS(=O)(=O)c1ccc(-c2sc(C(=O)NC3CCS(=O)(=O)CC3)nc2CC2CCCC2)c2ccccc12)C(F)(F)F` [8/11], for which the IC50 is, setting by setting: under setting [1], 1 nM; under setting [2], 1 nM.

Turning to `CC1(NC(=O)c2cc(-c3sc(C(=O)NC4CCS(=O)(=O)CC4)nc3CC3CCCCC3)cc(C3(C)CC3)c2)COC1` [10/4], the “pIC50 (FF)” value is reported as “nt/7.9/7.9” and the “pIC50 (REN)” value is listed as “nt/7.9/7.9”.

`CC(C)(C)NS(=O)(=O)c1ccc(-c2sc(C(=O)NCC(C)(C)c3noc(=O)[nH]3)nc2CC2CCCCC2)c2ccccc12` [6/60]: the “pIC50 (FF)” value is listed as “nt/8.5/8.7” and the “pIC50 (REN)” value is on record as “nt/8.5/8.7”.

Regarding `CC1CCN(C(=O)c2nc(C(=O)N3CC4(CCS(=O)(=O)CC4)C3)sc2-c2ccc(S(=O)(=O)NC(C)(C)C)c3ccccc23)CC1` [304/16], the “pIC50 (FF)” value was “nt/6.6/6.6” and the “pIC50 (REN)” value is listed as “nt/6.6/6.6”.

Consider `CC(C)(C)NS(=O)(=O)c1ccc(-c2sc(C(=O)N[C@H]3C[C@H](C(=O)O)C3)nc2CC2CCC2)c(Cl)c1Cl` [21/15], for which the IC50 under setting [1] is 20 nM and the IC50 under setting [2] is 20 nM.

For the compound `CCCc1nc(C(=O)N[C@H]2C[C@H](C(=O)O)C2)sc1-c1ccc(S(=O)(=O)NC(C)(C)C)c2ccccc12` [300/8], the IC50 is, setting by setting: under setting [1], 79.4 nM; under setting [2], 63.1 nM.

Regarding `C[C@H](NC(=O)c1cc(-c2sc(C(=O)NCC(C)(C)c3nnn[nH]3)nc2CC2CCCCC2)cc(C2(C)CC2)c1)C(F)(F)F` [6/62], the “pIC50 (FF)” value was “nt/7.5/7.5” and the “pIC50 (REN)” value is given as “nt/7.5/7.5”.
